Measured values published in ChEMBL document CHEMBL1201862, “PubChem BioAssay data set” (2004).
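Five concentrations, 48 hours, 96-well plates. Abbreviation: GI50, concentration required for 50% inhibition of growth.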 Activity calls are given as the source filed them. Rule as the data show it: active = GI50 up to about 1.1 µM and inactive = higher.

Tests used:
Experiment in all cases: NCI-60 cell line screen, 48 h
IGROV-1 = test system: IGROV-1
MCF7 = test system: MCF7
MDA-N = test system: MDA-N
SF-268 = test system: SF-268
SK-MEL-5 = test system: SK-MEL-5
HOP-92 = test system: HOP-92
OVCAR-5 = test system: OVCAR-5
TK-10 = test system: TK-10
OVCAR-4 = test system: OVCAR-4
HOP-62 = test system: HOP-62
ACHN = test system: ACHN
A549 = test system: A549
MOLT-4 = test system: MOLT-4
SNB-75 = test system: SNB-75
NCI-H460 = test system: NCI-H460
Hs-578T = test system: Hs-578T
K562 = test system: K562
KM12 = test system: KM12
RPMI-8226 = test system: RPMI-8226
SF-539 = test system: SF-539

## O=C1/C(=C/c2ccccc2)CN(C(=O)/C=C/c2ccccc2)C/C1=C\c1ccccc1
IGROV-1
  GI50: 6.95 µM (inactive)
MCF7
  GI50: 1.75 µM (inactive)
MDA-N
  GI50: 1.87 µM (inactive)
SF-268
  GI50: 11.2 µM (inactive)
SK-MEL-5
  GI50: 8.38 µM (inactive)
HOP-92
  GI50: 25.9 µM (inactive)
OVCAR-5
  GI50: 17.6 µM (inactive)
TK-10
  GI50: 16.1 µM (inactive)
OVCAR-4
  GI50: 6.85 µM (inactive)
HOP-62
  GI50: 23.7 µM (inactive)
ACHN
  GI50: 14.2 µM (inactive)
A549
  GI50: 11.1 µM (inactive)
MOLT-4
  GI50: 3.53 µM (inactive)
SNB-75
  GI50: 13.5 µM (inactive)
NCI-H460
  GI50: 11.5 µM (inactive)
Hs-578T
  GI50: 4.27 µM (inactive)
K562
  GI50: 2.98 µM (inactive)
KM12
  GI50: 4.17 µM (inactive)
RPMI-8226
  GI50: 1.07 µM (active)
SF-539
  GI50: 9.75 µM (inactive)

## COc1ccc2c(c1)C1=NCCN(CCN(C)C)c3ccc([N+](=O)[O-])c(c31)N2
IGROV-1
  GI50: 0.708 µM (active)
MCF7
  GI50: 0.365 µM (active)
MDA-N
  GI50: 0.542 µM (active)
SF-268
  GI50: 0.509 µM (active)
SK-MEL-5
  GI50: 0.845 µM (active)
HOP-92
  GI50: 0.603 µM (active)
OVCAR-5
  GI50: 1.59 µM (inactive)
TK-10
  GI50: 1.1 µM (active)
OVCAR-4
  GI50: 0.191 µM (active)
HOP-62
  GI50: 1.21 µM (inactive)
ACHN
  GI50: 0.191 µM (active)
A549
  GI50: 0.417 µM (active)
MOLT-4
  GI50: 0.355 µM (active)
SNB-75
  GI50: 0.173 µM (active)
NCI-H460
  GI50: 0.354 µM (active)
Hs-578T
  GI50: 1.75 µM (inactive)
K562
  GI50: 0.364 µM (active)
KM12
  GI50: 0.374 µM (active)
RPMI-8226
  GI50: 0.442 µM (active)
SF-539
  GI50: 0.432 µM (active)

## COC(=O)CNC(=O)CNC(=O)CSc1nnc(COc2ccc(Cl)cc2)n1-c1ccccc1
IGROV-1
  GI50: 17.9 µM (inactive)
MCF7
  GI50: > 100 µM (inactive)
MDA-N
  GI50: 23.7 µM (inactive)
SF-268
  GI50: 20.8 µM (inactive)
SK-MEL-5
  GI50: 22.4 µM (inactive)
HOP-92
  GI50: 19.2 µM (inactive)
OVCAR-5
  GI50: > 100 µM (inactive)
TK-10
  GI50: 44.5 µM (inactive)
OVCAR-4
  GI50: > 100 µM (inactive)
HOP-62
  GI50: > 100 µM (inactive)
ACHN
  GI50: > 100 µM (inactive)
A549
  GI50: > 100 µM (inactive)
MOLT-4
  GI50: 36.6 µM (inactive)
SNB-75
  GI50: 25.4 µM (inactive)
NCI-H460
  GI50: 62.8 µM (inactive)
Hs-578T
  GI50: 23.2 µM (inactive)
K562
  GI50: 30.1 µM (inactive)
KM12
  GI50: 21.3 µM (inactive)
RPMI-8226
  GI50: 29.4 µM (inactive)
SF-539
  GI50: > 100 µM (inactive)
